Results as given in patent US8278298B2, “Inhibition of tau-tau-association” (Wista Laboratories Ltd., priority 1995, dated 2012).
“Also recorded” adds a separate entry of the source.

Legend:
[1] = systemic administration; cited from earlier work
[2] = target: T1, tau-tau binding (truncated core tau unit of the PHF / full-length tau T40) (Homo sapiens, UniProt P10636); test: Tau-tau binding assay (truncated core tau unit in solid phase, tau in aqueous phase); conditions: for Ki: standard competitive inhibition model
T1 construct: the truncated core tau unit terminating at Ala-390 (“a”); made in house; host or cells: E. coli BL21 (DE3), plasmid pRK172
T1 sequence (P10636 614-707 limits assumed): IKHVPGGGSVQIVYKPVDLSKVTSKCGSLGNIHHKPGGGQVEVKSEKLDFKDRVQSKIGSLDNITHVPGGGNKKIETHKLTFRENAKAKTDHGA
Source text: Particularly preferred is the following configuration for tau-tau binding assays (FIG. 10): A tau fragment, preferably a recombinant tau fragment, corresponding to the truncated tau unit of the core PHF is bound to a solid phase, e.g. a conventional ELISA plate, in buffer conditions which have been shown not to favour tau-tau association. […] The solid phase is usually poly(vinyl-chloride), but may be other polymers such as cellulose, polyacrylamide, nylon, polystyrene or polypropylene. The solid supports may be in the form of tubes, beads, discs or micro plates, or any other surfaces suitable for conducting an assay, and which on passive binding of tau protein, exposes the high affinity tau capture site. Following binding, the solid phase-antibody complex is washed in preparation for the test sample.
Next, a truncated unit terminating at Glu-391 was incubated. Only the lafter could be detected as mAb 423 immunoreactivity. […] Therefore plating of the core tau unit for passive binding to solid phase matrix was carried out in this buffer. If desired, a depolymerised tubulin preparation or a preparation of microtubules in the same buffer can be plated for passive binding for determination of tau-tubulin binding. Suitable agents for blocking excess binding sites are milk extract, bovine serum albumin, gelatine, etc. […]
FIG. 8: Tau binding assay configuration in which binding of two truncated units is measured. […]
FIG. 10: Standard configuration for measurement of binding of full-length tau (“t”) to the truncated core tau unit previously bound passively to the solid phase (“a”). […] Binding is detected by an appropriate antibody, which recognises an epitope located near the N-terminus of full-length tau.
(§1) FIG. 20: Selective inhibition of tau-tau-binding by thionine. […] The Ki values were calculated using the Kd values obtained from the corresponding binding studies using full-length tau. […]
The assay is carried out in a 96-well PVC microtitre plate, with solutions added and readings taken with respect to individual wells: […]

3T3 cells = test: Toxicity of inhibitors in 3T3 cells; assay type: cell-based, mouse
Method: (§2) Mouse fibroblast 3T3 cells were transfected with a eukaryotic expression vector (pIF2) containing full-length and truncated forms of tau protein under constitutive control by a β-globin promotor. This vector contains a neomycin resistance gene as a selectable marker (pSV2neo; Sambrook et al. (1989), loc. cit.; modified by M. N. Neuberger). Cells were cultured in […] (DMEM) containing antimicrobial agents and 10% foetal calf serum at 37° C. in an atmosphere of 5% CO2. They were transfected with plasmid DNA either using a standard calcium phosphate protocol or by lipofection (according to manufacturers protocol; Gibco BRL). Cells which had integrated the plasmid DNA were selected by viability in medium containing Geneticin (0.5 mg/ml; Southern and Berg (1982), J. Mol. Appl. Genet. 1, 327).
The toxicity of the truncated core tau unit might be reversible in part if the prototype phenothiazine inhibitors could be used to block self-aggregation in vivo. This would be feasible only if the compounds were not intrinsically toxic at concentrations needed to block tau-tau binding. […] In practice, 3T3 cells could be grown several month in the presence of 2 μM thionine.

[3] = target: tau-tubulin binding (depolymerised tubulin coated, tau incubated) (Homo sapiens, UniProt P10636); test: Tau-tubulin binding assay; conditions: read-out: Ki for inhibition of the tau-tubulin binding interaction in vitro
Sequence of tau-tubulin binding (depolymerised tubulin coated, tau incubated) (P10636 1-441 isoform P10636-8): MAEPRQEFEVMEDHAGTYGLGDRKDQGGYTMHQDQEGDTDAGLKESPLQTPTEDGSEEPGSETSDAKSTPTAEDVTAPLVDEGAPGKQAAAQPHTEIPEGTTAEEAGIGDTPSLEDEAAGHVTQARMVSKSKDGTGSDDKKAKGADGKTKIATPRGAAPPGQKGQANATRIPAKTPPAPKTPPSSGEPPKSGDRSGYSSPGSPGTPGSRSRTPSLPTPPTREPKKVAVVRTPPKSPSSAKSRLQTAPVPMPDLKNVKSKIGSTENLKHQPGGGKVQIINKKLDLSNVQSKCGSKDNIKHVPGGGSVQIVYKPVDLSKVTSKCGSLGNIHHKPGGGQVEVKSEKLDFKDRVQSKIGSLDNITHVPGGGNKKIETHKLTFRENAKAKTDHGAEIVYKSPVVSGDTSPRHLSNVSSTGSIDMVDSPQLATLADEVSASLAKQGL
Method: A method of determining any possible interference, i.e. binding of tau or a derivative thereof to tubulin molecules, comprises contacting a depolymerised tubulin preparation, or preparation of taxol-stabilised microtubules with an agent suspected of being capable of modulating or inhibiting pathological tau-tau association and a tau compound mentioned in above step c) followed by detection of the tau-tubulin binding.
Next, a truncated unit terminating at Glu-391 was incubated. Only the lafter could be detected as mAb 423 immunoreactivity. […] Therefore plating of the core tau unit for passive binding to solid phase matrix was carried out in this buffer. If desired, a depolymerised tubulin preparation or a preparation of microtubules in the same buffer can be plated for passive binding for determination of tau-tubulin binding. Suitable agents for blocking excess binding sites are milk extract, bovine serum albumin, gelatine, etc. […] No binding of full-length tau was seen without prior plating of the core tau unit in the solid phase. When both species were present, binding was seen to depend on concentration of both species. […]
as §1

[4] = test system: tau/MAP2 binding interaction (foetal MAP2C); test: Tau/MAP2 binding in the standard binding assay; conditions: truncated tau/MAP2C and MAP2C/full-length tau configurations
Source text: One possible explanation for the lack of MAP2 in PHFs might be that MAP2 in PHFs might be MAP2 is unable to bind to the core tau unit of the PHF because of sequence differences in the repeat regions. This was examined experimentally using the standard binding assay in two configurations: truncated tau in the solid phase with foetal MAP2C in the aqueous phase, and MAP2C in the solid phase with full-length tau in the aqueous phase. […] Thus, aggregation in the tandem-repeat region is not selective for tau, and the inhibitory activity of phenothiazine inhibitors such as thionine is not dependent on sequences unique to tau. The reason why MAP2 is not found in PHFs is at present unknown, but factors may include the contribution of the large N-terminal domain found in the adult form of MAP2, compartment differences within the cell, or other differences in processing of the MAP2 molecules.

[5] = test system: 3T3 fibroblast transfected with full-length tau protein; test: Cytoskeletal distribution of tau in 3T3 fibroblasts transfected with full-length tau; assay type: cell-based, mouse
Method: as §2
The influence of thionine on the tau-tubulin binding interaction was examined in vivo by culturing 3T3 fibroblast transfected with full-length tau protein in the presence of thionine at a range of concentrations.

[6] = test system: 3T3 cells transfected with truncated tau; test: Viability of 3T3 cells transfected with truncated tau; assay type: cell-based, mouse; conditions: grown in higher concentrations of thionine
Method: as §2
The number of viable cell lines transfected with truncated tau increased when the cells were grown in the presence of higher concentrations of thionine.

[7] = test system: 3T3 cells transfected with PIF2::T40; test: Lipofectin/tau protein transfer into 3T3 cells expressing full-length tau; assay type: cell-based, mouse; conditions: truncated tau transferred via lipofectin, all three concentrations of truncated tau; thionine 1 μM
Method: FIG. 30: Lipofectin/tau protein transfers into 3T3 cells transfected with PIF2::T40. Relative cell survival (normalised to cell counts after Lipofectin treatment without protein) is shown for approximately equimolar concentrations of full-length (T40, 220 nM) and truncated tau (dGAE, 300 nM), without (unshaded) or with shaded) thionine at 1 μM. Truncated tau is more toxic than full-length tau (p=0.02), despite the fact that at equimolar concentrations, the total protein load is 5× greater in the case of full-length tau.
FIGS. 31A and 31B: (FIG. 31A) Reversal of truncated tau toxicity: The toxicity of truncated tau transferred via lipofectin into 3T3 cells expressing full-length tau is concentration dependent. […] (FIG. 31B) Similar experiment in which full-length tau was transferred via lipofectin into 3T3 cells expressing full-length. Both toxicity and thionine effects were much less apparent.

PC-12 cells = test: pNFH aggregates and neurite incorporation in PC-12 cells; assay type: cell-based; conditions: for Frequency of cells with pNFH aggregates: after db-cAMP, with thionine
Method: (§3) Neuronal cell lines (N2A, NIE-115) were cultured in DMEM containing 2% or 10% foetal calf serum and 5% horse serum on tissue culture plates coated with collagen. These were all grown at 37° C. in an atmosphere containing 5% CO2. Initial immunohistochemical studies of neuronal cell lines prior to transfection led to the identification of cytoplasmic aggregates immunoreactive with mAb 423 forming in the cytoplasm of undifferentiated neuroblastoma cells (N2A cells) and in PC-12 cells after brief treatment with dibutyryl-cAMP (db-cAMP, known to differentiate neuroblastoma cells in tissue culture). […] In the course of differentiation, this endogenous mAb 423 immunoreactivity was seen to shift from the cytoplasm to neurites. Immunoprecipitation of mAb423 immunoreactivity from these cells led to the identification of a species with gel mobility of 230 kDa which was recognised by SMI-31. […] We refer to them as presumptive-NFH aggregates (pNFH).
PC-12 cells were transfected with the pIF2 vector containing either the PHF-core tau fragment truncated at Glu-391 or full-length tau protein. As with 3T3 fibroblasts, no viable cell lines transfected with truncated tau were produced unless cells were grown in thionine following transfection. Once stahilised, transfected cell lines were analysed in the presence or absence of db-cAMP and in the presence and absence of thionine. Two end-points were examined: formation of cytoplasmic pNPH aggregates, and distribution of pNFH immunoreactivity into neurites.

NIE-115 cells = test: pNFH aggregates and neurite incorporation in NIE-115 cells; assay type: cell-based
Method: as §3
Rather, pNFH immunoreactivity was normally incorporated into growing neurites during the course of differentiation, although an early perinuclear-arc stage was also seen. NIE cells were transfected as above with the pIF2 vector containing either full-length or truncated tau protein and grown in the presence of thionine. The effects of adding db-cAMP in the presence or absence of thionine were then examined.

neuronal cell lines = test: Toxicity for neuronal cell lines; assay type: cell-based; conditions: concentrations up to 2 μM

CN(C)c1ccc2nc3ccc(=[N+](C)C)cc-3sc2c1 [methylene blue]
CNS penetration [1]: CNS penetration following systemic administration has been described

POTr: fetal rat tau
Binding to the core tau unit ([2]; introduced in the aqueous phase): incapable of pathological binding

acriflavin [reference compound]
Ki [2]: 100 nM | Toxicity in 3T3 cells / fibroblasts (3T3 cells): lowest toxicity

thionine
Ki [2]: 100 nM | Ki [3]: 8000 nM | Effect on tau/MAP2 binding interaction [4]: blocked | Toxicity in 3T3 cells / fibroblasts (3T3 cells): lowest toxicity; also recorded: does not appear to have substantial intrinsic toxicity | Concentration at which 3T3 cells could be grown several months (3T3 cells; prolonged culture): 2000 nM | Concentration causing disruption of normal cytoskeletal distribution of tau immunoreactivity [5]: 4 to 8 µM | Effect on cytoskeletal distribution of tau ([5]; concentration range 0.5-2 μM): no effect | Number of viable cell lines transfected with truncated tau [6]: increased | Reversal of truncated tau toxicity [7]: significantly reversed toxicity | pNFH-neurite index (PC-12 cells; PC-12 cells transfected with truncated tau, with thionine (0.04 without)): 0.49 | Frequency of cells with pNFH aggregates (PC-12 cells; all transfected cells (49% after withdrawal)): 27% | Frequency of cells with pNFH aggregates (PC-12 cells; cells transfected with full-length tau (32% after withdrawal)): 16% | Frequency of cells with pNFH aggregates (PC-12 cells; cells transfected with truncated tau (60% after withdrawal)): 36% | Inhibition of pNFH aggregates in the cytoplasm (PC-12 cells; untransfected PC-12 cells): Dose-dependent inhibition | pNFH-neurite index (NIE-115 cells; NIE-ND1, after db-cAMP, with thionine as printed (0.66 without)): 0.1 | Proportion of cells containing pNFH aggregates (NIE-115 cells; NIE-ND6, transfected with truncated tau, with thionine (44% after withdrawal)): 14% | Incorporation of transgenic tau protein into the microtubular cytoskeleton (NIE-115 cells; cells transfected with full-length tau): did not interfere | Proportion of cells containing pNFH aggregates (NIE-115 cells; cells transfected with full-length tau, with thionine (16% after withdrawal)): 7% | Toxicity for neuronal cell lines (neuronal cell lines): not toxic
